These results are taken from patent US20260355196A1, “INHIBITORS AND DEGRADERS OF PIP4K PROTEIN” (Larkspur Biosciences, Inc., priority 2023, published 2026).

The target in one experiment is T1, PIP4K2C (Homo sapiens, UniProt Q8TBX8).
T1 sequence (Q8TBX8 1-421): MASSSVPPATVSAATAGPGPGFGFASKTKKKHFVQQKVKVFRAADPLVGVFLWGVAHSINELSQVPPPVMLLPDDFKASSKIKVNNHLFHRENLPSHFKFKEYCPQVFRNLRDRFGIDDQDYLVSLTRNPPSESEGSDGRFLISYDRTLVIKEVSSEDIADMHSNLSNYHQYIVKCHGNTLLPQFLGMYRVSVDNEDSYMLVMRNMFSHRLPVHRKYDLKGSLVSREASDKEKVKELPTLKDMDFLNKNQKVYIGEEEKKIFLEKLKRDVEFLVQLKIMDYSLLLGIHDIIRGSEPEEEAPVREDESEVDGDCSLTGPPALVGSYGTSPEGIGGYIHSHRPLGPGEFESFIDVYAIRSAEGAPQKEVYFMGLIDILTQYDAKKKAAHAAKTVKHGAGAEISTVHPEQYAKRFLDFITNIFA
In words: HiBiT PIP4K2C degradation assay in MOLT-4 cells (endogenous PIP4K2C C-terminally tagged with HiBiT). The experiment is classed as cell-based. Further details: untagged in primary human PBMCs and monocyte-derived dendritic cells. The following applies: 6 hours of incubation time, rather than 24 hours; MOLT-4, top concentration 10 micromolar; read-out: HiBIT-degradation MOLT4 PIP4k2C DC50 (6 hours, marked *). In short, it runs like this:
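Endogenous PIP4K2C was C-terminally HiBiT-tagged by CRISPR-Cas9 in MOLT-4 cells, which were treated with a 10-point, 3-fold dilution series from 10 micromolar in duplicate for 24 or 6 hours at 37 C. Remaining protein was read by HiBiT lytic luminescence, and DC50 came from a Hill fit.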
Background: The HiBiT peptide binds its large partner to form an active luciferase.
By DC50 is commonly meant the concentration giving 50% degradation. Turning to `O=C1CCC(Nc2ccc(C3CCN([C@H]4CC[C@H](C(=O)N[C@H]5CC[C@H](Nc6ncc(F)c(-c7cccc(N8CCOC8=O)c7)n6)CC5)CC4)CC3)c(F)c2)C(=O)N1` (stereo partly drawn) [Compound 446, trans-(1r,4R)-4-(4-(4-((2,6-dioxopiperidin-3-yl)amino)-2-fluorophenyl)piperidin-1-yl)-N-((1r,4R)-4-((5-fluoro-4-(3-(2-oxooxazolidin-3-yl)phenyl)pyrimidin-2-yl)amino)cyclohexyl)cyclohexane-1-carboxamide], the DC50 is below 500 nM.
For `O=C1CC[C@@H](Nc2ccc(C3CCN(CC4CCN(C(=O)[C@H]5CC[C@H](Nc6ncc(F)c(-c7cccc(N8CCCCC8=O)c7)n6)CC5)CC4)CC3)c(F)c2)C(=O)N1` (single isomer, unassigned) [Compound 448], the half-maximal degradation concentration (DC50) is below 500 nM.
Still for that read-out and setting: with `O=C1CCC(Nc2ccc(N3CCC(CN4CCN(C(=O)[C@H]5CC[C@H](Nc6ncc(F)c(-c7cccc(-c8ccc[nH]c8=O)c7)n6)CC5)CC4)CC3)c(F)c2)C(=O)N1` (stereo partly drawn) [Compound 430, 3-((3-fluoro-4-(4-((4-(trans-4-((5-fluoro-4-(3-(2-oxo-1,2-dihydropyridin-3-yl)phenyl)pyrimidin-2-yl)amino)cyclohexane-1-carbonyl)piperazin-1-yl)methyl)piperidin-1-yl)phenyl)amino)piperidine-2,6-dione] the figure was below 500 nM; with `O=C1CCC(Nc2ccc(C3CCN(CC4CCN(C(=O)[C@H]5CC[C@H](Nc6ncc(F)c(-c7cccc(-c8ccccc8)c7)n6)CC5)CC4)CC3)c(F)c2)C(=O)N1` (stereo partly drawn) [Compound 466, 3-((4-(1-((1-(trans-4-((4-([1,1′-biphenyl]-3-yl)-5-fluoropyrimidin-2-yl)amino)cyclohexane-1-carbonyl)piperidin-4-yl)methyl)piperidin-4-yl)-3-fluorophenyl)amino)piperidine-2,6-dione], below 500 nM; with `O=C1CCC(Nc2ccc(N3CCN([C@H]4CC[C@H](NC(=O)[C@H]5CC[C@H](Nc6ncc(F)c(-c7cccc(-c8ccccc8)c7)n6)CC5)CC4)CC3)c(F)c2)C(=O)N1` (stereo partly drawn) [Compound 662, trans-(1r,4R)-4-((4-([1,1′-biphenyl]-3-yl)-5-fluoropyrimidin-2-yl)amino)-N-((1r,4R)-4-(4-(4-((2,6-dioxopiperidin-3-yl)amino)-2-fluorophenyl)piperazin-1-yl)cyclohexyl)cyclohexane-1-carboxamide], below 500 nM.
With `O=C1CC[C@H](Nc2ccc(N3CCN(C[C@H]4CC[C@H](CNC(=O)[C@H]5CC[C@H](Nc6ncc(F)c(-c7cccc(-n8ccccc8=O)c7)n6)CC5)CC4)CC3)c(F)c2)C(=O)N1` (single isomer, unassigned) [Compound 460], the DC50 is below 500 nM.
On the same count and under the same terms, the same measure for `O=C1CCC(Nc2ccc(C3CCN(C4CCN(C(=O)O[C@H]5CC[C@H](Nc6ncc(F)c(-c7cccc(-c8ccccc8)c7)n6)CC5)CC4)CC3)c(F)c2)C(=O)N1` (stereo partly drawn) [Compound 651, trans-4-((4-([1,1′-biphenyl]-3-yl)-5-fluoropyrimidin-2-yl)amino)cyclohexyl 4-(4-((2,6-dioxopiperidin-3-yl)amino)-2-fluorophenyl)-[1,4′-bipiperidine]-1′-carboxylate]: below 500 nM; for `O=C1CCC(Nc2ccc(N3CCC(N4CCC(C(=O)N[C@H]5CC[C@H](Nc6ncc(F)c(-c7cccc(-c8ccc[nH]c8=O)c7)n6)CC5)CC4)C(F)(F)C3)c(F)c2)C(=O)N1` (stereo partly drawn) [Compound 599, 1′-(4-((2,6-dioxopiperidin-3-yl)amino)-2-fluorophenyl)-3′,3′-difluoro-N-(trans-4-((5-fluoro-4-(3-(2-oxo-1,2-dihydropyridin-3-yl)phenyl)pyrimidin-2-yl)amino)cyclohexyl)-[1,4′-bipiperidine]-4-carboxamide]: below 500 nM.
As to `O=C1CCC(Nc2ccc(C3CCN([C@H]4CC[C@H](NC(=O)[C@H]5CC[C@H](Nc6ncc(F)c(-c7cccc(N8CCCCC8=O)c7)n6)CC5)CC4)CC3)c(F)c2)C(=O)N1` (stereo partly drawn) [Compound 565, trans-N-(trans-4-(4-(4-((2,6-dioxopiperidin-3-yl)amino)-2-fluorophenyl)piperidin-1-yl)cyclohexyl)-4-((5-fluoro-4-(3-(2-oxopiperidin-1-yl)phenyl)pyrimidin-2-yl)amino)cyclohexane-1-carboxamide], the 50% degradation concentration (DC50) was below 500 nM.

The experiment is the same for the next values; noted with them: 24 hours incubation, MOLT-4, top concentration 10 micromolar; read-out: HiBIT-degradation MOLT4 PIP4k2C 24 hours DC50.
Take `O=C1CCC(Nc2ccc(N3CCN(CC4CCN(CC(=O)N5CCC(Nc6ncc(F)c(-c7cccc(-n8ccccc8=O)c7)n6)CC5)CC4)CC3)c(F)c2)C(=O)N1` (stereo not drawn) [Compound 341, 3-((3-fluoro-4-(4-((1-(2-(4-((5-fluoro-4-(3-(2-oxopyridin-1(2H)-yl)phenyl)pyrimidin-2-yl)amino)piperidin-1-yl)-2-oxoethyl)piperidin-4-yl)methyl)piperazin-1-yl)phenyl)amino)piperidine-2,6-dione]: the DC50 was below 500 nM.
Regarding `O=C1CCC(n2c(=O)oc3cc(C4CCN(CC5CCN(CC(=O)N[C@H]6CC[C@H](Nc7ncc(F)c(-c8cccc(N9CCOC9=O)c8)n7)CC6)CC5)CC4)ccc32)C(=O)N1` (stereo partly drawn) [Compound 363, trans-2-[4-[[4-[3-(2,6-dioxo-3-piperidyl)-2-oxo-1,3-benzoxazol-6-yl]-1-piperidyl]methyl]-1-piperidyl]-N-[4-[[5-fluoro-4-[3-(2-oxooxazolidin-3-yl)phenyl]pyrimidin-2-yl]amino]cyclohexyl]acetamide], the DC50 was below 500 nM.
The same measure, in the same setting: with `O=C1CCC(n2c(=O)oc3cc(C4CCN(CCC5(O)CCN(C(=O)[C@H]6CCC[C@@H](Nc7ncc(F)c(-c8cccc(-n9ccccc9=O)c8)n7)C6)CC5)CC4)ccc32)C(=O)N1` (relative stereo) [Compound 347, cis-3-(6-(1-(2-(1-(3-((5-fluoro-4-(3-(2-oxopyridin-1(2H)-yl)phenyl)pyrimidin-2-yl)amino)cyclohexane-1-carbonyl)-4-hydroxypiperidin-4-yl)ethyl)piperidin-4-yl)-2-oxobenzo[d]oxazol-3 (2H)-yl)piperidine-2,6-dione] the figure was below 500 nM.
The same measure, in the same setting: with `O=C1CCC(N2Cc3c(OC4CCN(C5CCCN(CC(=O)N6CCC(Nc7ncc(Cl)c(-c8cccc(-c9ccc(F)cc9)c8)n7)CC6)C5)CC4)cccc3C2=O)C(=O)N1` (stereo not drawn) [Compound 296, 3-(4-((1′-(2-(4-((5-chloro-4-(4′-fluoro-[1,1′-biphenyl]-3-yl)pyrimidin-2-yl)amino)piperidin-1-yl)-2-oxoethyl)-[1,3′-bipiperidin]-4-yl)oxy)-1-oxoisoindolin-2-yl)piperidine-2,6-dione] the figure was below 500 nM; with `O=C1CCC(N2Cc3cc(C4CCN(C5CCN(CC(=O)N6CCC(Nc7ncc(Cl)c(-c8cccc(-c9ccccc9)c8)n7)CC6)CC5)CC4)ccc3C2=O)C(=O)N1` (stereo not drawn) [Compound 71, 3-(5-(1′-(2-(4-((4-([1,1′-biphenyl]-3-yl)-5-chloropyrimidin-2-yl)amino)piperidin-1-yl)-2-oxoethyl)-[1,4′-bipiperidin]-4-yl)-1-oxoisoindolin-2-yl)piperidine-2,6-dione], below 500 nM; with `O=C1CCC(Nc2ccc(N3CCN(CC4CCN(CC(=O)N[C@H]5CC[C@H](Nc6ncc(F)c(-c7cccc(-n8ccccc8=O)c7)n6)CC5)CC4)CC3)c(F)c2)C(=O)N1` (stereo partly drawn) [Compound 326, trans-2-(4-((4-(4-((2,6-dioxopiperidin-3-yl)amino)-2-fluorophenyl)piperazin-1-yl)methyl)piperidin-1-yl)-N-(4-((5-fluoro-4-(3-(2-oxopyridin-1(2H)-yl)phenyl)pyrimidin-2-yl)amino)cyclohexyl)acetamide], below 500 nM.
